From patent US7148250B2, “Indoles as NAALADase inhibitors” (Guilford Pharmaceuticals Inc., priority 2001, dated 2006)

Key:
[1] = tested on: Brown Norway rats with unilateral elevation of intraocular pressure; test: Experimental rat glaucoma (IOP elevation), optic nerve fiber counting; assay type: in vivo; conditions: 10 mg/kg i.p. daily
Protocol: (§1) All experiments complied with the Association for Research in Vision and Ophthalmology Statement for the Use of Animals in Ophthalmic and Vision Research. 82 male Brown Norway rats (Rattus norvegicus), each weighing approximately 250 gm, were treated using procedures approved by the Animal Care Committee of the Johns Hopkins University School of Medicine. The rats were housed with a 12 hour light/12 hour dark cycle and fed ad libitum.
EXPERIMENTAL GLAUCOMA: Unilateral elevation of intraocular pressure (“IOP”) was produced in 56 rats by microinjection of hypertonic saline into episcleral veins, following procedures described in Morrison, J. et al., IOVS (March 1998) 39:526–531. Beginning on the day of IOP elevation, the rats were treated daily with intraperitoneal injections of either a vehicle (23 rats with 50 mM HEPES-buffered saline) or a NAALADase inhibitor (11 rats with 10 mg/kg of Compound A and 22 rats with 10 mg/kg of Compound B). 11 saline treated rats, 11 Compound A treated rats and 11 Compound B treated rats were sacrificed at 8 weeks, and the remaining rats at 12 weeks, after initial IOP elevation.
(§2) OPTIC NERVE COUNTING: The rats were sacrificed by exsanguination under deep pentobarbital anesthesia. They were perfused through the heart with 2% paraformaldehyde/2% glutaraldehyde in 0.1 M phosphate buffer, pH 7.2, and the eyes with attached optic nerves were removed. A cross-section of the optic nerve from both experimental (glaucoma or transection) and control eyes was removed 1.5 mm posterior to the globe, 1 mm in thickness, and post-fixed in 2% osmium tetroxide in buffer. These were processed into epoxy resin, sectioned at 1 micron and stained with toluidine blue.
(§3) The area of the optic nerve cross-section was measured by outlining its outer border at 10× magnification on an image analysis system (Universal Imaging Corp., Westchester, Pa.) with Synsys digital camera and Metamorph software. Three area measurements were taken and the mean value was determined. To measure the density and fiber diameter distributions, images were captured with a 100× phase contrast objective from 10 different areas of each nerve. These were edited to eliminate non-neural objects and the size of each axon internal to the myelin sheath (its minimum diameter) and the density of axons/square mm were calculated for each image and nerve. The mean density was multiplied by total nerve area to yield fiber number for each nerve. The total fiber number in glaucoma or transection nerves was compared to the normal, fellow eye of each rat to yield a percent loss value. The number of axons counted among the 10 images was an approximately 20% sample of the 80–90,000 axons in normal rat nerves. The person measuring axon number was masked to the protocol conducted on the nerves.

[2] = tested on: Brown Norway rats with unilateral optic nerve transection; test: Optic nerve transection, optic nerve fiber counting; assay type: in vivo, Rattus norvegicus; conditions: for FIBER NUMBER ± SEM / PERCENT DIFFERENCE ± SEM in fiber number between transected and normal eye: 10 mg/kg i.p. daily
Protocol: as §1
OPTIC NERVE TRANSECTION: The optic nerve was transected unilaterally in 26 rats under intraperitoneal pentobarbital anesthesia. The conjunctiva was opened with scissors and the optic nerve exposed by traction on extraocular muscles. The transection was performed with microscissors 5 mm posterior to the globe, with specific attention to avoidance of injury to major ocular blood vessels. Immediately after transection, the retina was examined ophthalmoscopically to assure that the retinal arterial blood supply was not disrupted. The conjunctiva was closed with absorbable suture and the eye dressed with antibiotic ointment. Beginning on the day of transection, the rats were treated daily with intraperitoneal injections of either a vehicle (9 rats with 50 mM HEPES-buffered saline) or a NAALADase inhibitor (8 rats with 10 mg/kg of Compound A and 9 rats with 10 mg/kg of Compound B). 5 saline treated rats, 3 Compound A treated rats and 4 Compound B treated rats were sacrificed at 2 weeks, and the remaining rats at 4 weeks, after transection.
as §2, §3

[3] = tested on: transgenic HD mice of the N171-82Q strain; test: Transgenic mouse model of Huntington's disease (rotarod, locomotion, survival); assay type: in vivo
Protocol: Transgenic HD mice of the N171-82Q strain and non-transgenic littermates were treated with NAALADase inhibitor Compound B (30 mg/kg) or a vehicle from 10 weeks of age. The mice were placed on a rotating rod (“rotarod”). The length of time at which the mouse fell off the rotarod was recorded as a measure of motor coordination. […] The treatment with Compound B had no effect on the rotarod performance of normal non-HD mice.
The total distance traveled by the mice was also recorded as a measure of overall locomotion.
The effects of Compound B and vehicle on the survival of transgenic HD mice (N171-82Q) were evaluated. Thirteen mice (six male and seven female) were assigned to the Compound B treatment group, and fourteen mice (six male and eight female) were assigned to the vehicle treatment group. Treatment was continued until all the mice died.

[4] = 2 weeks survival after transection
[5] = 4 weeks survival after transection

SMILES: O=C(O)CCC(CCCS)C(=O)O (stereo not shown) [Compound B, 2-(3-sulfanylpropyl)-pentanedioic acid]
- FIBER NUMBER ± SEM ([1]; 8 week group): 80785 ± 2121
- PERCENT DIFFERENCE ± SEM in fiber number between glaucoma and normal eye ([1]; 8 week group, positive = fewer fibers in glaucoma eye): −0.82 ± 2.97%
- FIBER NUMBER ([1]; 12 week group): 90504 ± 1718
- PERCENT DIFFERENCE in fiber number between glaucoma and normal eye ([1]; 12 week group, positive = fewer fibers in glaucoma eye): −3.21 ± 2.86%
- remaining axons relative to saline-treated rats ([2]; 2 weeks after transection): twice
- FIBER NUMBER ± SEM [2, 4]: 19,550 ± 5,091
- PERCENT DIFFERENCE ± SEM in fiber number between transected and normal eye [2, 4]: 75.3 ± 6.6%
- FIBER NUMBER ± SEM [2, 5]: 5,162 ± 2,509
- PERCENT DIFFERENCE ± SEM in fiber number between transected and normal eye [2, 5]: 93.4 ± 3.1%
- survival time versus vehicle treated counterparts ([3]; female transgenic HD mice (p-value=0.03)): significantly prolonged survival time
- rotarod performance ([3]; normal non-HD mice, 30 mg/kg): no effect
- median survival time ([3]; transgenic HD mice (N171-82Q), both sexes, not significant versus vehicle (p=0.07)): 184 days
- rotarod performance (time on rotarod) versus vehicle ([3]; transgenic HD mice, 30 mg/kg from 10 weeks of age): stayed longer on the rotarod
